Results reported in PMC3889466 (Journal of medicinal chemistry, 2013).

Legend:
A/M2 V27A = A/M2 V27A (Influenza A virus, UniProt P0DOF5, V27A); conditions: cited from earlier work
A/M2 S31N [1] = biological target: T1, A/M2 S31N (Influenza A virus, UniProt P0DOF5, S31N); conditions: conductance assay in M2-expressing oocytes; cited from earlier work
A/M2 S31N [2] = biological target: T1, A/M2 S31N; assay type: cell-based, influenza A/Udorn/72; conditions: pH 5.5

SMILES	Activity against the V27A mutant form of A/M2 (in words) (A/M2 V27A)	Activity against the S31N mutant form of A/M2 (in words) (A/M2 S31N [1])	A/M2 S31N Inhibition by 100 μM for 2 min (%) (A/M2 S31N [2])
CC12CC3CC1(C)CC3(N)C2 [Compound 6]	inactive	inactive	–
CC12CC3CC1(C)CC3(CN)C2 [Compound 7]	inactive	inactive	–
NC12C3CCC4C3C3C(CCC31)C42 [Compound 8]	did not show any activity	–	–
NCC12C3CCC4C3C3C(CCC31)C42 [Compound 9]	did not show any activity	–	–
C1=CC2C3C4C5C=CC4C24CNCC54C13 [Compound 10]	marginal activity	–	–
C1C2C1C1C3C4C5C6CC6C4C14CNCC54C23 (stereo not drawn) [Compound 11]	marginal activity	–	–
CC12CC34CNCC3(C1)CC2(C)C4.Cl [Compound 14a, 7,8-Dimethyl-3-azatetracyclo[5.2.1.1^5,8.0^1,5]undecane hydrochloride]	–	–	0
